Results from ChEMBL document CHEMBL6134905, “Double Swords in One: Novel Selective PI3K/110β PROTAC Degraders for the Treatment of Multidrug-Resistant Cancer by Activating ERS and Inhibiting P-gp” (J Med Chem, 2025).
Calls of active or inactive are those of the source. The calls are words filed in the database; no cut-off is given here.

How the values were obtained:
MCF7/ADM [1] = test: Antitumor activity against human MCF7/ADM cells xenografted in BALB/c mouse assessed as increase in ATF6 expression in tumor at 50 mg/kg, ip by Western blot analysis; type: functional, organism-based
[2] = Toxicity in BALB/c mouse xenografted with human MCF7/ADM cells assessed as heart damage at 50 mg/kg, ip by H and E staining based analysis; type: organism-based; details: in vivo
MCF7/ADM [3] = test: Induction of apoptosis in human MCF7/ADM cells assessed as increase in cleaved caspase-3 expression at 12.5 uM incubated for 24 hrs by Western blot analysis; type: functional, cell-based
MCF7/ADM [4] = test: Induction of apoptosis in human MCF7/ADM cells assessed as increase in caspase-8 expression at 12.5 uM incubated for 24 hrs by Western blot analysis; type: functional, cell-based
MCF7/ADM [5] = test: Induction of apoptosis in human MCF7/ADM cells assessed as increase in cleaved caspase-8 expression at 12.5 uM incubated for 24 hrs by Western blot analysis; type: functional, cell-based
MCF7/ADM [6] = test: Antitumor activity against human MCF7/ADM cells xenografted in BALB/c mouse assessed as reduction in AKT expression in tumor at 50 mg/kg, ip by Western blot analysis; type: functional, organism-based
[7] = target: T1, von Hippel-Lindau disease tumor suppressor/Phosphatidylinositol 4,5-bisphosphate 3-kinase catalytic subunit beta isoform (Homo sapiens, UniProt P42338+P40337); test: PROTAC activity at PI3K-p110beta/VHL in human MCF7/ADM cells assessed as induction of PI3K-p110beta degradation at 25 uM measured for 24 hrs in presence of VHL ligand by Western blot analysis; type: cell-based
Target sequence in this assay (P40337 whole entry, looked up, canonical isoform): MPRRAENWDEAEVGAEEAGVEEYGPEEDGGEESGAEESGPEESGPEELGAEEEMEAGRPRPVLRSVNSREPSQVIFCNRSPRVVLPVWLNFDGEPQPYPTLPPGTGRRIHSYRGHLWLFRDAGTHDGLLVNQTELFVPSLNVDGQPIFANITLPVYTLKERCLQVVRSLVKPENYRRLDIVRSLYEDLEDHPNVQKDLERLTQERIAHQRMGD
Target sequence in this assay (P42338 whole entry, looked up, canonical isoform): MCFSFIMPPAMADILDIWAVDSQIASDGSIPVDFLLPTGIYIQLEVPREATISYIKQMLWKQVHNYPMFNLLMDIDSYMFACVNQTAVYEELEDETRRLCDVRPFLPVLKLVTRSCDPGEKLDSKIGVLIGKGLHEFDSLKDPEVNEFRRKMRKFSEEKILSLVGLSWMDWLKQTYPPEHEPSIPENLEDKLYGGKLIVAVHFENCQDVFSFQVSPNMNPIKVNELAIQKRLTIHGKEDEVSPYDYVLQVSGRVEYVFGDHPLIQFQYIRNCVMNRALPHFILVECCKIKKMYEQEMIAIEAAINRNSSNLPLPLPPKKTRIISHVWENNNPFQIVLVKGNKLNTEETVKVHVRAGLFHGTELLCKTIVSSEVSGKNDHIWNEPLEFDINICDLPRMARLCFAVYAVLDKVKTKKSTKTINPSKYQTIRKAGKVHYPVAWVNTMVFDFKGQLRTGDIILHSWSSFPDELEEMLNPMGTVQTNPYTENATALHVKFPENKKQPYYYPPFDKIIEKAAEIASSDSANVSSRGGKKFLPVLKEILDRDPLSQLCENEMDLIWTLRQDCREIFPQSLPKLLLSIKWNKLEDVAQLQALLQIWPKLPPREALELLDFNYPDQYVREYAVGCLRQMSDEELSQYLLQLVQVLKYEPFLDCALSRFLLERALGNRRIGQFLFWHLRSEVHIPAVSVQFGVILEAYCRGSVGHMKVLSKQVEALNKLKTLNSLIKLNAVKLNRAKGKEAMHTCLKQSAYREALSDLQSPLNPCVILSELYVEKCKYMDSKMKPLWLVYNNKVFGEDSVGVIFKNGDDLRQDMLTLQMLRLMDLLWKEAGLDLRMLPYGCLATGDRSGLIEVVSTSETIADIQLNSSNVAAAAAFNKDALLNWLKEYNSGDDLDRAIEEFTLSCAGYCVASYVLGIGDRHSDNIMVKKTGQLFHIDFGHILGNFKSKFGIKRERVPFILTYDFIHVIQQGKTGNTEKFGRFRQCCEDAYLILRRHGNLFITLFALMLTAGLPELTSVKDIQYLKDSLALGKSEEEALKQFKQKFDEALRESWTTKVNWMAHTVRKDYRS

[8] = target: T1, von Hippel-Lindau disease tumor suppressor/Phosphatidylinositol 4,5-bisphosphate 3-kinase catalytic subunit beta isoform; test: PROTAC activity at PI3K-p110beta/VHL in human MCF7/ADM cells assessed as induction of PI3K-p110beta degradation at 25 uM measured for 24 hrs in presence of MG132 by Western blot analysis; type: cell-based
Target sequence in this assay (P40337 whole entry, looked up, canonical isoform): as the sequence (P40337 whole entry, looked up, canonical isoform) above
Target sequence in this assay (P42338 whole entry, looked up, canonical isoform): as the sequence (P42338 whole entry, looked up, canonical isoform) above

MCF7/ADM [9] = test: Upregulation of ATF4 expression in human MCF7/ADM cells at 0.25 to 25 uM incubated for 24 hrs by Western blot analysis; type: functional, cell-based; details: dose 0.25-25 µM
[10] = Toxicity in BALB/c mouse xenografted with human MCF7/ADM cells assessed as change in AST level at 50 mg/kg, ip; type: organism-based; details: in vivo
[11] = Toxicity in BALB/c mouse xenografted with human MCF7/ADM cells assessed as change in HGB level at 50 mg/kg, ip; type: organism-based; details: in vivo
A549/CDDP [12] = test: Upregulation of CHOP expression in human A549/DDP cells at 0.25 to 25 uM incubated for 24 hrs by Western blot analysis; type: functional, cell-based; details: dose 0.25-25 µM
MCF7/ADM [13] = test: Antitumor activity against human MCF7/ADM cells xenografted in BALB/c mouse assessed as decrease in cleaved caspase-8 expression in tumor at 50 mg/kg, ip by Western blot analysis; type: functional, organism-based
MCF7/ADM [14] = test: Activation of unfolded protein response in human MCF7/ADM cells at 25 uM incubated for 24 hrs by PROTEOSTATR aggresome dye based fluorescent microscopy; type: functional, cell-based
A549/CDDP [15] = test: Induction of apoptosis in human A549/DDP cells assessed as increase in caspase-3 expression at 12.5 uM incubated for 24 hrs by Western blot analysis; type: functional, cell-based
[16] = Toxicity in BALB/c mouse xenografted with human MCF7/ADM cells assessed as change in creatinine level at 50 mg/kg, ip; type: organism-based; details: in vivo
[17] = target: T1, von Hippel-Lindau disease tumor suppressor/Phosphatidylinositol 4,5-bisphosphate 3-kinase catalytic subunit beta isoform; test: PROTAC activity at PI3K-p110beta/VHL in human A549/DDP cells assessed as reduction in PI3K-p110beta level by Western blot analysis; type: cell-based; details: time <= 48.0 hrs
Target sequence in this assay (P40337 whole entry, looked up, canonical isoform): as the sequence (P40337 whole entry, looked up, canonical isoform) above
Target sequence in this assay (P42338 whole entry, looked up, canonical isoform): as the sequence (P42338 whole entry, looked up, canonical isoform) above

A549/CDDP [18] = test: Induction of apoptosis in human A549/DDP cells assessed as increase in cleaved caspase-8 expression at 12.5 uM incubated for 24 hrs by Western blot analysis; type: functional, cell-based
MCF7/ADM [19] = test: Induction of oxidative stress in human MCF7/ADM cells at 25 uM measured for 24 hrs; type: functional, cell-based
MCF7/ADM [20] = test: Upregulation of CHOP expression in human MCF7/ADM cells at 0.25 to 25 uM incubated for 24 hrs by Western blot analysis; type: functional, cell-based; details: dose 0.25-25 µM
MCF7/ADM [21] = test: Induction of apoptosis in human MCF7/ADM cells assessed as decrease in bax expression at 12.5 uM incubated for 24 hrs by Western blot analysis; type: functional, cell-based
[22] = target: T1, von Hippel-Lindau disease tumor suppressor/Phosphatidylinositol 4,5-bisphosphate 3-kinase catalytic subunit beta isoform; test: PROTAC activity at PI3K-p110beta/VHL in human A549/DDP cells assessed as reduction in PI3K-p110beta level incubated for 24 hrs by Western blot analysis; type: cell-based
[23] = target: T1, von Hippel-Lindau disease tumor suppressor/Phosphatidylinositol 4,5-bisphosphate 3-kinase catalytic subunit beta isoform; test: PROTAC activity at PI3K-p110beta/VHL in human A549/DDP cells assessed as induction of PI3K-p110beta degradation at 25 uM measured for 24 hrs in presence of VHL ligand by Western blot analysis; type: cell-based
Target sequence in this assay (P40337 whole entry, looked up, canonical isoform): as the sequence (P40337 whole entry, looked up, canonical isoform) above
Target sequence in this assay (P42338 whole entry, looked up, canonical isoform): as the sequence (P42338 whole entry, looked up, canonical isoform) above

[24] = Antitumor activity against human MCF7/ADM cells assessed as cell viability incubated for 24 hrs by MTT assay; type: functional, cell-based
[25] = Toxicity in BALB/c mouse xenografted with human MCF7/ADM cells assessed as spleen damage at 50 mg/kg, ip by H and E staining based analysis; type: organism-based; details: in vivo
MCF7/ADM [26] = test: Upregulation of PTEN expression in human MCF7/ADM cells at 25 uM incubated for 24 hrs by Western blot analysis; type: functional, cell-based
MCF7 = test: Antitumor activity against human MCF7 cells assessed as cell viability incubated for 24 hrs by MTT assay; type: functional, cell-based; details: MCF7, 24 h
[27] = target: T1, von Hippel-Lindau disease tumor suppressor/Phosphatidylinositol 4,5-bisphosphate 3-kinase catalytic subunit beta isoform; test: PROTAC activity at PI3K-p110beta/VHL in human MCF7/ADM cells assessed as induction of PI3K-p110beta degradation at 25 uM measured for 24 hrs in presence of TGX221 by Western blot analysis; type: cell-based
Target sequence in this assay (P40337 whole entry, looked up, canonical isoform): as the sequence (P40337 whole entry, looked up, canonical isoform) above
Target sequence in this assay (P42338 whole entry, looked up, canonical isoform): as the sequence (P42338 whole entry, looked up, canonical isoform) above

A549/CDDP [28] = test: Upregulation of ATF6 expression in human A549/DDP cells at 0.25 to 25 uM incubated for 24 hrs by Western blot analysis; type: functional, cell-based; details: dose 0.25-25 µM
[29] = target: ATP-dependent translocase ABCB1 (Homo sapiens, UniProt P08183); test: Inhibition of P-gp in human A549/DDP cells at 6.25 to 25 uM incubated for 24 hrs; type: cell-based; details: dose 6.25-25 µM
MCF7/ADM [30] = test: Antitumor activity against human MCF7/ADM cells xenografted in BALB/c mouse assessed as increase in bax expression in tumor at 50 mg/kg, ip by Western blot analysis; type: functional, organism-based
MCF7/ADM [31] = test: Antitumor activity against human MCF7/ADM cells xenografted in BALB/c mouse assessed as reduction in p-110beta expression in tumor at 50 mg/kg, ip by Western blot analysis; type: functional, organism-based
A549/CDDP [32] = test: Induction of apoptosis in human A549/DDP cells assessed as decrease in bax expression at 12.5 uM incubated for 24 hrs by Western blot analysis; type: functional, cell-based
[33] = Toxicity in BALB/c mouse xenografted with human MCF7/ADM cells assessed as kidney damage at 50 mg/kg, ip by H and E staining based analysis; type: organism-based; details: in vivo
[34] = target: T1, von Hippel-Lindau disease tumor suppressor/Phosphatidylinositol 4,5-bisphosphate 3-kinase catalytic subunit beta isoform; test: PROTAC activity at PI3K-p110beta/VHL in human A549/DDP cells assessed as induction of PI3K-p110beta degradation at 0.04 to 50 uM by Western blot analysis; type: cell-based; details: dose 0.04-50 µM, time 24.0 hrs
Target sequence in this assay (P40337 whole entry, looked up, canonical isoform): as the sequence (P40337 whole entry, looked up, canonical isoform) above
Target sequence in this assay (P42338 whole entry, looked up, canonical isoform): as the sequence (P42338 whole entry, looked up, canonical isoform) above

[35] = Toxicity in BALB/c mouse xenografted with human MCF7/ADM cells assessed as change in BUN level at 50 mg/kg, ip; type: organism-based; details: in vivo

Chain of ATP-dependent translocase ABCB1 (P08183 whole entry): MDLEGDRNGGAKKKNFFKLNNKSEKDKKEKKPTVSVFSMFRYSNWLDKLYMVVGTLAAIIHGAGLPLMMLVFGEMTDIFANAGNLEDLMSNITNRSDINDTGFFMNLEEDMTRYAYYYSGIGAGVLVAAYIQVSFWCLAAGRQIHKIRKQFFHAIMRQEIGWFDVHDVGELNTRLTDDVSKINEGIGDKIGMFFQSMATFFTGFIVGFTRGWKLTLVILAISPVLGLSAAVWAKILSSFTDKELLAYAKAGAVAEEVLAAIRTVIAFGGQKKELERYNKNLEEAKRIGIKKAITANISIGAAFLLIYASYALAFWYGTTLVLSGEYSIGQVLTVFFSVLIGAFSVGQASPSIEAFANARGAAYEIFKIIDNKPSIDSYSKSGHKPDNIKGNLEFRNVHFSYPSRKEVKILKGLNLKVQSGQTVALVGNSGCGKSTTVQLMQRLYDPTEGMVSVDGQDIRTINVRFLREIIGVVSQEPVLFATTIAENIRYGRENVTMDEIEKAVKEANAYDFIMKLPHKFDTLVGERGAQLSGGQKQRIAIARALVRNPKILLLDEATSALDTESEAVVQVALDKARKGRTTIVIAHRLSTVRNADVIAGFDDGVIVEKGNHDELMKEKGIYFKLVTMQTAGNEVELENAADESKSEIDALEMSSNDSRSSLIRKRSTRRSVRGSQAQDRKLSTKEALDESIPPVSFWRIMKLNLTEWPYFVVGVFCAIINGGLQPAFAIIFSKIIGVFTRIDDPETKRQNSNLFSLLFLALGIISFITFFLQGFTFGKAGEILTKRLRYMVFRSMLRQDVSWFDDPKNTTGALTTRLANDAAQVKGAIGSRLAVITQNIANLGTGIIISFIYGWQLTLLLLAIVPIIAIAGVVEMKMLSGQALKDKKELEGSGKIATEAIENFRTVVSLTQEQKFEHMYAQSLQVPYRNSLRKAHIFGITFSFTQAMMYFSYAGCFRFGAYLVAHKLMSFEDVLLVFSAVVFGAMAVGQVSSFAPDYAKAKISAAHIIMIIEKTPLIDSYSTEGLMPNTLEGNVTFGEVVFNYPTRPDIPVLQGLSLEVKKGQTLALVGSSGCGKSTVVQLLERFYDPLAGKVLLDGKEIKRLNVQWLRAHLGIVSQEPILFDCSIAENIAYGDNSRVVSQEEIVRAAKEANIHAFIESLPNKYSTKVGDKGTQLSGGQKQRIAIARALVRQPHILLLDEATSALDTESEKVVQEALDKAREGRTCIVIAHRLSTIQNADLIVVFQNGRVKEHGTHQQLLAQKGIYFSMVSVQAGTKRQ

Row | Activity [7] | Activity [8] | Activity [17] | Compound | Activity (MCF7/ADM [1]) | Activity [2] | Activity (MCF7/ADM [3]) | Activity (MCF7/ADM [4]) | Activity (MCF7/ADM [5]) | Activity (MCF7/ADM [6]) | Activity (MCF7/ADM [9]) | Activity [10] | Activity [11] | Activity (A549/CDDP [12]) | Activity (MCF7/ADM [13]) | Activity (MCF7/ADM [14]) | Activity (A549/CDDP [15]) | Activity [16] | Activity (A549/CDDP [18]) | Activity (MCF7/ADM [19]) | Activity (MCF7/ADM [20]) | other results
1 | Active | Active | Time-dependent-effect | Cc1cc(C(C)Nc2ccccc2C(=O)NCCOCCOCCC(=O)N[C@H](C(=O)N2C[C@H](O)C[C@H]2C(=O)NCc2ccc(-c3scnc3C)cc2)C(C)(C)C)c2nc(N3CCOCC3)cc(=O)n2c1 (some centres not stated) | Active | Non-toxic | Active | Active | Active | Active | Active | Non-toxic | Non-toxic | Active | Active | Active | Active | Non-toxic | Active | Active | Active | Activity (MCF7/ADM [21]): Active; Activity ([22]; dose 0.04-50 µM): Dose-dependent-effect; Activity [23]: Active; IC50 [24]: 30.2 µM; Activity [25]: Non-toxic; Activity (MCF7/ADM [26]): Active; IC50 (MCF7): 33.9 µM; Activity [27]: inactive; Activity (A549/CDDP [28]): Active; inhibition (INH) [29]: Active; Activity (MCF7/ADM [30]): Active; Activity (MCF7/ADM [31]): Active; Activity (A549/CDDP [32]): Active; Activity [33]: Non-toxic; Activity [34]: Time-dependent-effect; Activity [35]: Non-toxic
2 | Active | Active | Time-dependent-effect | Cc1cc(C(C)Nc2ccccc2C(=O)NCCCCCCC(=O)N[C@H](C(=O)N2C[C@H](O)C[C@H]2C(=O)NCc2ccc(-c3scnc3C)cc2)C(C)(C)C)c2nc(N3CCOCC3)cc(=O)n2c1 (some centres not stated) | Active | Non-toxic | Active | Active | Active | Active | Active | Non-toxic | Non-toxic | Active | Active | Active | Active | Non-toxic | Active | Active | Active | Activity (MCF7/ADM [21]): Active; DC50 [22]: 2.19 µM; Activity [23]: Active; IC50 [24]: 38.7 µM; Activity [25]: Non-toxic; Activity (MCF7/ADM [26]): Active; IC50 (MCF7): 54 µM; Activity [27]: inactive; Activity (A549/CDDP [28]): Active; inhibition (INH) [29]: Active; Activity (MCF7/ADM [30]): Active; Activity (MCF7/ADM [31]): Active; Activity (A549/CDDP [32]): Active; Activity [33]: Non-toxic; Activity [34]: Time-dependent-effect; Activity [35]: Non-toxic
